Read-outs that look alike come from different tables or passages of the source.
Tests used:
[1] = target: T1, GFP-hRIIα expressed in COS-7 cells (Homo sapiens, UniProt P13861); assay: Co-localization with GFP-tagged RIIα by confocal microscopy; assay type: cell-based; settings: 500 μM, 30 minutes
T1 construct: expressed in transfected cells; host or cells: COS-7
Protocol: (§1) The scale bar indicates 10 μm.
(§2) Cloning of the R subunits into the expression vector hpGFP^2-N2 (PerkinElmer) was performed as described previously. […] Cellular imaging was performed on a confocal microscope (Leica) with a Plan apo 100× oil immersion objective (Leica).

[2] = target: T2, RIα subunit (Homo sapiens, UniProt P10644); assay: Fluorescence polarization displacement of 8-Fluo-cAMP from RIα subunit; assay type: binding; settings: 2.5 nM RIα, 1 nM 8-Fluo-cAMP
T2 construct: made in house; host or cells: E. coli BL21 (DE3) Codon Plus RIL
T2 sequence (P10644 whole entry): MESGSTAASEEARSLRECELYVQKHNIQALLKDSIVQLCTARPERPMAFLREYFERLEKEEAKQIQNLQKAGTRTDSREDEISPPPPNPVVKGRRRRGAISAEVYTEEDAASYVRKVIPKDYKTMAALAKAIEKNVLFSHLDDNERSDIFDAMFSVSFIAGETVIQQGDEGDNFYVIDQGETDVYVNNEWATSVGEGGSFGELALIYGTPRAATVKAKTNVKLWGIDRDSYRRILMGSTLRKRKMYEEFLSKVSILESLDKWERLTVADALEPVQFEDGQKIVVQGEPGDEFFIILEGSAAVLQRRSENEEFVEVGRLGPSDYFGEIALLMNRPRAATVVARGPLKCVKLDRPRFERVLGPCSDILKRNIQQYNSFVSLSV
Protocol: (§3) . Figure 3 Competitive nucleotide binding assay using fluorescence polarization. […] 2.5 nM R subunit was added and fluorescence polarization was determined at Ex485 nm/Em535 nm. […] Each data point represents the mean +/- S.E.M. from at least triplicate measurements.
(§4) For expression of PKA regulatory subunits, one liter of Luria Broth medium containing 100 μg/ml of ampicillin was inoculated with E. coli BL21 (DE3) Codon Plus RIL cells (Stratagene) transformed with human RIα, RIβ, RIIα (in pRSETB) or rat RIIβ (in pETIIc) and grown at 37°C to an OD600 nm of 0.8. Recombinant protein expression was induced by addition of […] isopropyl-β-D-thiogalactopyranoside (IPTG) and the culture was incubated at 25°C for additional 17–18 h. The pellets were stored at -20°C.
(§5) The fluorescence polarization displacement assay was performed as described before. […] Fluorescence polarization was measured after 5 minutes of incubation at room temperature.

[3] = target: T3, PKA-IIα sensor (RIIα-RLuc / GFP2-Cα) in COS-7 cells (Homo sapiens, UniProt P13861); assay: BRET assay of PKA holoenzyme dissociation in living cells; settings: 30 minutes
T3 sequence (P13861 whole entry): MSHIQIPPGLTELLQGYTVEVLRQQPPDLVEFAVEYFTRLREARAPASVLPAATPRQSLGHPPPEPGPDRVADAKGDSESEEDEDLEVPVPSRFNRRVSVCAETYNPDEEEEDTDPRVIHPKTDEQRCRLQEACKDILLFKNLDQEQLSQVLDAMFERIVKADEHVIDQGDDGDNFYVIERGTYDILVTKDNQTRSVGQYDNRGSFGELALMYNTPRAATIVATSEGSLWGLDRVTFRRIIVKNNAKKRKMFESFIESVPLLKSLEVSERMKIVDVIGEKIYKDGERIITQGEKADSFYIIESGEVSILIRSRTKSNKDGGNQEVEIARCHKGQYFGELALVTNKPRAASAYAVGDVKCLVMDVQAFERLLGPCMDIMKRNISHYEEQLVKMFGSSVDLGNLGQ
Source text: In this assay, a decrease in BRET signal indicates intracellular dissociation of the PKA holoenzyme [42].
BRET signals were obtained after addition of the luciferase substrate DeepBlueC™ and detection of luciferase and fluorescence light emission using a multi-label reader. Shown is a representative experiment, repeated three times; data are mean ± S.E.M., performed with n = 6 replicates. […] Briefly, cells were co-transfected with a constant amount of BRET donor (hRIIα-Rluc) and an increasing amount of acceptor DNA (GFP^2-hCα) as indicated. […] The BRET values of two independent experiments, each performed with n = 6 replicates, were background subtracted, normalized and plotted as mean ± S.E.M.
COS-7 cells were used for BRET experiments. […] For the BRET read-out, the luciferase substrate DeepBlueC™ (PerkinElmer) was added at a final concentration of 5 μM in a total volume of 50 μl D-PBS. […] Control measurements with cells expressing RLuc and GFP proteins without a fusion partner yield the background BRET signal. A BRET titration (bystander BRET test) was performed by co-transfection of COS-7 cells with a constant donor-expression plasmid (0.5 μg) with an increasing amount of acceptor-expression plasmid (0–2 μg). The cells were treated as described above.

[4] = target: T4, PKA-IIβ holoenzyme (Rattus norvegicus, UniProt P12369); assay: PKA holoenzyme activation, coupled spectrophotometric kinase assay with Kemptide (RIIβ + Cα); assay type: biochemical, rat RIIβ, murine Cα; settings: relative to cAMP
T4 construct: made in house; host or cells: E. coli BL21 (DE3) / BL21 (DE3) Codon Plus RIL
T4 sequence (P12369 whole entry): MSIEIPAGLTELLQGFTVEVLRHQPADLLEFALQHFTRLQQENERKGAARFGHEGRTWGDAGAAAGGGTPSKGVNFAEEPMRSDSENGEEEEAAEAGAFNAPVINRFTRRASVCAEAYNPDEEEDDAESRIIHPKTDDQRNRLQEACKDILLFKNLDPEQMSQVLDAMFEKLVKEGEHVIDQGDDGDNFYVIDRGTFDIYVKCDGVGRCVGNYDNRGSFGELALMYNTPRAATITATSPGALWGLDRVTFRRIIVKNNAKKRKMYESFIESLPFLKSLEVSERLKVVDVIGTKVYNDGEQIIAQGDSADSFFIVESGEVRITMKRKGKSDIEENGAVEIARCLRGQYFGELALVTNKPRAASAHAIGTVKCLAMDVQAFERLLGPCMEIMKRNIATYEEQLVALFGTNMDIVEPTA
Protocol: (§6) Kinase activity was assayed spectrophotometrically, using the synthetic heptapeptide Kemptide as a substrate. […] Each data point represents the mean ± S.D. of two measurements.

[5] = test system: RIIα subunit; assay: Fluorescence polarization displacement of 8-Fluo-cAMP from RIIα subunit; assay type: binding, human; settings: 2.5 nM RIIα, 1 nM 8-Fluo-cAMP
Protocol: as §3, §4, §5

[6] = target: T5, GFP-hRIα expressed in COS-7 cells (Homo sapiens, UniProt P10644); assay: Co-localization with GFP-tagged RIα by confocal microscopy; assay type: cell-based; settings: 500 μM, 30 minutes
T5 construct: expressed in transfected cells; host or cells: COS-7
T5 sequence (P10644 whole entry): as the sequence (P10644 whole entry) above
Protocol: as §1, §2

[7] = Absorption and fluorescence spectra, relative quantum yield; assay type: physicochemical; settings: pH 7.0
Source text: First we determined the photo-chemical properties of the free Pharos dye. The Stokes shift at pH 6.0, pH 7.0 and pH 7.4 was 42 nm resulting from an absorption maximum at 575 nm and an emission maximum at 617 nm (Fig. 1; […]
Figure 1 Fluorescence absorption and emission spectra of the Pharos dye. The absorption maxima of the Pharos dye dissolved in buffer with the indicated pH values is at 575 nm, whereas the emission maxima are at 617 nm.
To calculate the relative quantum yield ϕ of the Pharos dye the absorption (500 nm to 640 nm) and fluorescence (λex = 553 nm, λem ranging from 558 nm to 800 nm) spectra of several Pharos dye concentrations (640 nM to 64.2 μM) were recorded using quinine sulfate as a standard. The determination of the relative quantum yield is generally accomplished by plotting the integrated fluorescence intensity versus the absorbance at the excitation wavelength (see Additional file 1, panel a). By comparing the slope of the linear regression (see Additional file 1, panel b) with that of a standard substance (quinine sulfate), the relative quantum yield of the Pharos dye was determined to be 30%.
The Pharos dye was diluted in 20 mM 2-(4-morpholino)-ethane sulfonic acid (MES) buffer adjusted to pH 6.0, pH 7.0 and pH 7.4, and all samples were degassed by bubbling nitrogen through the solution before measuring the absorption or fluorescence spectra. […]

[8] = target: T6, PKA-IIα holoenzyme (Homo sapiens, UniProt P13861); assay: PKA holoenzyme activation, coupled spectrophotometric kinase assay with Kemptide (RIIα + Cα); assay type: biochemical, human RIIα, murine Cα; settings: relative to cAMP
T6 construct: made in house; host or cells: E. coli BL21 (DE3) / BL21 (DE3) Codon Plus RIL
T6 sequence (P13861 whole entry): as the sequence (P13861 whole entry) above
Protocol: as §6

[9] = test system: RIIβ subunit; assay: Fluorescence polarization displacement of 8-Fluo-cAMP from RIIβ subunit; assay type: binding, rat; settings: 2.5 nM RIIβ, 1 nM 8-Fluo-cAMP
Protocol: as §3, §4, §5

[10] = target: PDE4D5 (Homo sapiens, UniProt Q08499); assay: Stability towards phosphodiesterase, coupled spectrophotometric activity assay; settings: 15 minutes of assay duration
Sequence of PDE4D5 (Q08499 1-745 isoform Q08499-6): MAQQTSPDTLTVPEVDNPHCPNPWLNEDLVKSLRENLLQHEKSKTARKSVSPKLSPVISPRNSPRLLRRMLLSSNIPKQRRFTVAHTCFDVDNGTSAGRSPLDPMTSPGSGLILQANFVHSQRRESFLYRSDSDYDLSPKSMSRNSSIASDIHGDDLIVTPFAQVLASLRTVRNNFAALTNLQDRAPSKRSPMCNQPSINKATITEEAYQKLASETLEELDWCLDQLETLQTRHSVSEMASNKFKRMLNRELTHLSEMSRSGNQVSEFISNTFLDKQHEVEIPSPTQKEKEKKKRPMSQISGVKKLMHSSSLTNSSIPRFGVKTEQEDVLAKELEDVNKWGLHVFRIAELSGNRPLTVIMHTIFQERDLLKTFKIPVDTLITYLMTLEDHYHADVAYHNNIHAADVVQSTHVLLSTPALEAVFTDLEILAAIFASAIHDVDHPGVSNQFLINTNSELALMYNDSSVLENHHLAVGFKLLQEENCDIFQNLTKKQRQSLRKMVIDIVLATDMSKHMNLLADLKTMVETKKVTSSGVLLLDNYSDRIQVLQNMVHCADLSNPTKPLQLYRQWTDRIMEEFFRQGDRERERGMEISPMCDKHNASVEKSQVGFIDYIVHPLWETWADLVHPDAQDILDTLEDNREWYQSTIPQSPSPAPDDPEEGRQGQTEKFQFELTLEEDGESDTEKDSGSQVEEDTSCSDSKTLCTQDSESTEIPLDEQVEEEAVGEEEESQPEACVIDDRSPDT
Source text: Absolutely stable analogs would arise from conjugating the Pharos fluorophore to phosphorothioate- modified structures such as Rp- or Sp-cAMPS (Rp- or Sp-diastereomer of adenosine 3'-5'-monophosphorothiorate).

[11] = Retention-based lipophilicity by reversed phase HPLC (logKw)
[12] = target: T7, PKA-Iα holoenzyme (Homo sapiens, UniProt P10644); assay: PKA holoenzyme activation, coupled spectrophotometric kinase assay with Kemptide (RIα + Cα); assay type: biochemical, human RIα, murine Cα; settings: 20 nM PKA-Cα, 260 μM Kemptide; cAMP value printed with refs 27, 28 and Fig. 4a; read-out: apparent activation constant (EC50), RIα holoenzyme
T7 construct: made in house; host or cells: E. coli BL21 (DE3) / BL21 (DE3) Codon Plus RIL
T7 sequence (P10644 whole entry): as the sequence (P10644 whole entry) above
Protocol: as §6

[13] = test system: HEK293 cells expressing H30 indicator; assay: Uptake in living cells, Epac-based FRET cAMP indicator H30; assay type: cell-based; settings: 100 μM IBMX
Source text: Since FRET depends on the distance between the two fluorophores which in turn is ligand-dependent, this probe is used to estimate the intracellular level of cAMP or -analogs.
We can not exclude, however, that the Epac- based FRET sensor used for the measurements preferentially binds Sp-5,6-DCl-cBIMPS.
The ratio between the background subtracted emission intensities at 480 nm and 545 nm is plotted as a function of time. […] The insets show the yellow fluorescent protein fluorescence at the beginning of the experiments and the regions of interest where FRET ratios are calculated.
For transient expression of the H30 sensor, cells were seeded onto 24-mm diameter round glass coverslips, and transfections were performed at 50–70% confluence with FuGENE-6 transfection reagent (Roche). Imaging experiments were performed after about 24 h. Cells were maintained in Hepes-buffered Ringer-modified solution, containing 125 mM NaCl, 5 mM KCl, 1 mM Na3PO4, 1 mM MgS0_4, 5.5 mM glucose, 1 mM CaCl2, and 20 mM Hepes, pH 7.4, at room temperature and treated with 100 μM 3-Isobutyl-1-methylxanthine (IBMX, Sigma-Aldrich) 10 minutes before the experiments. […] FRET variations were measured as changes of the ratio between the background-subtracted fluorescence emission intensities at 480 nm and 545 nm, on excitation at 430 nm. […]

[14] = target: T3, PKA-IIα sensor (RIIα-RLuc / GFP2-Cα) in COS-7 cells; parameters: expressed in transfected cells; host or cells: COS-7; method as in PMID 16524697; settings: living cells; read-out: EC50, holoenzyme dissociation by BRET; cited from earlier work

T1 sequence (P13861 whole entry): as the sequence (P13861 whole entry) above

8-[Pharos-575]adenosine -3',5'-cyclic monophosphate [8-[ϕ-575]-cAMP]
co-localization with GFP-tagged RIIα [1]: co-localization | binding to the R subunit compared with cAMP (displacement of 8-Fluo-cAMP) [2]: bound equally well | inhibition of specific RIIα-Cα interaction (BRET titration) ([3]; 600 μM, COS-7 cells): about 50% | EC50 ([3]; read-out: concentration for half-maximal holoenzyme dissociation, added to intact COS-7 cells): ~600 µM | apparent activation constant (EC50) compared to cAMP, RIIβ holoenzyme [4]: about two-fold increased | times cAMP is more efficient in displacing 8-Fluo-cAMP compared to 8-[ϕ-575]-cAMP [5]: about 10 times | co-localization with GFP-tagged RIα [6]: co-localization | emission maximum [7]: 605 nm | excitation maximum [7]: 577 nm | apparent activation constant (EC50) compared to cAMP, RIIα holoenzyme [8]: about two-fold increased | times cAMP is more efficient in displacing 8-Fluo-cAMP compared to 8-[ϕ-575]-cAMP [9]: ~5 times | degradation by PDE4D5 [10]: No degradation | increased lipophilicity compared to cAMP ([11]; from logKw): more than 70 times | logKw ([11]; reversed phase HPLC, YMC RP-18): 2.95 | EC50 [12]: 0.15 µM | concentration available to the intracellular fluorescent indicator ([13]; 500 μM added for one hour, estimated from cAMP dose-FRET response curve): about 7 μM

O[C@@H]1[C@@H]2OP(O)(=S)OC[C@H]2O[C@H]1n1cnc2cc(Cl)c(Cl)cc21 (single isomer, unassigned) [Sp-5,6-DCl-cBIMPS, 5,6-dichlorobenzimidazole riboside-3',5'-cyclic monophosphorothioate, Sp-isomer, reference compound]
state of the fluorescent FRET probe after treatment ([13]; 500 μM, after 40 minutes of treatment): almost completely saturated

Nc1ncnc2c1nc(Br)n2[C@@H]1O[C@@H]2COP(=O)(O)O[C@H]2[C@H]1O [8-Br-cAMP, 8-Bromoadenosine-3',5'-cyclic monophosphate]
EC50 [14]: 1500 µM
